Test results from publication PMC7576608, “Mechanisms of telomerase inhibition by oxidized and therapeutic dNTPs” (Nature Communications, 2020).
Values joined by “and” are separate entries in the source; they are usually repeats but may differ in a detail not shown here. Equal entries are not always repeated.

Columns and labels:
telomerase [1] = molecular target: T1, telomerase (Homo sapiens, UniProt O14746); assay: Telomerase repeat processivity IC50: modified dNTP titrated into reactions with all four natural dNTPs; type: biochemical; parameters: made in house; anti-FLAG immunopurification, eluted with 3xFLAG peptide; conditions: for Slope (line fit of ln(100-%LB) vs # telomere repeats) / YIntercept (line fit of ln(100-%LB) vs # telomere repeats): replicates n1, n2; for ln(100-%LB): n1, n2
Source text: In order to better understand the ability of modified dNTPs to compete with natural dNTPs for telomerase utilization, we added modified dNTPs to reactions containing all four natural dNTPs. […] The calculated IC50 determines the concentration required to reduce repeat processivity in the bulk reactions by half. However, it is important to note that bulk experiments cannot distinguish effects on individual telomeres, since extended telomeres mask unextended telomeres. Incorporation of a chain terminator during any step will terminate extension of the affected telomere, and just five critically short telomeres are sufficient to trigger senescence. Therefore, repeat processivity IC50 values are not necessarily an indicator of the inhibitory potency, but provide information on selectivity for modified dNTPs compared to natural dNTPs. […] The ability to purify sufficient quantities of tcTERT enables characterization of the catalytic nucleotide addition by pre-steady-state single turnover kinetics using a defined DNA–RNA primer–template substrate. The catalytic efficiency of incorporating a single dNTP is measured by dividing the observed nucleotide incorporation rate constant, kpol, by the equilibrium dissociation constant for dNTP binding to the tcTERT–primer–template complex (Kd)[44].
(§1) The reactions were started by the addition of 3 μl of immunopurified telomerase eluent, incubated at 37 °C for 1 h, then terminated with 2 μl of 0.5 mM EDTA and heat inactivated at 65 °C for 20 min. An equal volume of loading buffer (94% formamide, 0.1× TBE, 0.1% bromophenol blue, 0.1% xylene cyanol) was added to the reaction eluent. The samples were heat denatured for 10 min at 100 °C and loaded onto a 14% denaturing acrylamide gel (7 M urea, 1× TBE) and electrophoresed for 90 min at constant 38 W. Samples were imaged using a Typhoon phosphorimager (GE Healthcare). Percent primer extension was calculated with ImageQuant TL 8.2 by measuring the intensity of each product band and dividing by the total radioactivity in the lane or total products, as indicated in the figure legends.
The processivity was calculated as described[40],[67]. Repeat processivity from the direct telomerase extension assays was calculated as R1/2 (equivalent to the half-time for decay in an exponential time course), which represents the median length of DNA product formed, expressed in terms of number of telomere repeats. First, the total volume counts for each product band extend by one or more telomere repeats were obtained using Image Quant TL. The volume counts were then normalized by dividing by the number of radiolabeled guanosines incorporated into the extended products based on the number of repeats added, termed corrected volume (corr vol). The “percent left behind” (%LB) was calculated for each product band by summing the counts for that product band and for every product band below (shorter products), divided by the total counts for the lane, and then multiplied by 100. The natural log of (100−%LB) was calculated and then plotted vs. repeat number for each product length. A linear regression line was fit to the data to determine the slope of the line. The R1/2 value was calculated by dividing −ln(2) by the slope of each fitted line (R1/2 = −ln(2)/slope).
Supplementary Fig 8. IC50 values for telomerase processivity inhibition. Telomerase reactions were conducted with cellular relevant concentrations of all four natural dNTPs and increasing concentrations of the modified dNTP analog from 0 to 10,000 μM to calculate. (a) The natural log of (100-%LB) was plotted vs repeat number. A straight line was fit to the data and the R1/2 value was calculated by dividing –ln(2) by the slope of each line. Plots shown from one experiment are […]

telomerase [2] = molecular target: T1, telomerase; assay: Telomerase extension of 32P-end labeled primers with a single dNTP (percent primer extension); type: biochemical; parameters: made in house; anti-FLAG immunopurification, eluted with 3xFLAG peptide; conditions: for Percent Primer Extension: 50 μM single dNTP
Protocol: A chain terminating mechanism of inhibition requires that the enzyme adds the modified dNTP to a growing chain, which then blocks further synthesis. […] To test whether telomerase can incorporate other modified dNTPs, and whether the incorporation is chain terminating and/or mutagenic, we conducted direct extension assays in which we radiolabeled the primer and added increasing concentrations (5, 50, and 500 μM) of a single dNTP (Supplementary Figs. 3, 5, 6, and 7). Since modified dNTPs may prefer mispairing, we tested various primers in which the first template base was either rA3, rC1, or rU5 (primer 1, primer 2, and primer 3, respectively), and compared the percent primer extension for each dNTP at the middle 50 μM concentration (Fig. 3). Primers 1 and 2 initiate synthesis at consecutive rA3rA4 or rC1rC2 template bases, respectively, so we could examine both incorporation and extension to the next base. However, the telomerase template lacks tandem rU residues.
Fig. 3 Telomerase insertion of modified dNTPs. Telomerase reactions were conducted with 5 nM ^32P-end labeled primer a Primer 1 (TTAGGG)3, b Primer 2 (GGTTAG)3, or c Primer 3 (AGGGTT)3. Reactions contained cellular-concentration dNTPs (lane 1) or 50 μM of indicated natural dNTP (blue, lanes 2–5), oxidized dNTP (red, lanes 6–8), or therapeutic dNTP (green, lanes 9–11). Products were separated on denaturing gels. […] Letters on the right indicate the template base; P indicates unextended 18-mer primer. Graphs represent the percent of total primers extended. Images are representative of, and data are shown as mean ± s.d. from, three independent experiments. Source data are provided as a Source Data file.
as §1, with “An” for “The reactions were started by the addition of 3 μl of immunopurified telomerase eluent, incubated at 37 °C for 1 h, then terminated with 2 μl of 0.5 mM EDTA and heat inactivated at 65 °C for 20 min. An”
Telomerase reactions were conducted with 5 nM 32P-end labeled primer (a) Primer 1 (TTAGGG)3, (b) Primer 2 (GGTTAG)3, or (c and d) Primer 3 […]
(d) reactions contained 3 µg/µl RNase A. Products were separated on denaturing gels. Letters on the right indicate the template base; P indicates unextended 18-mer primer. Graphs represent the percent of total primers extended for the reactions in panels a – c from one experiment. Panel d is a representative image from three independent experiments. Source data are provided as a Source Data file. […]
Supplementary Fig 4. Time course reactions with telomerase or pol β. (a, b) Telomerase reactions were conducted with 5 nM 32P-end labeled primer (a) Primer 4 (GTTAGG)3 or (b) Primer 2 (GGTTAG)3.
Products were separated on denaturing gels. Letters on the right indicate the template base; P indicates […]
unextended 18-mer primer. […]

T1 sequence (O14746 whole entry): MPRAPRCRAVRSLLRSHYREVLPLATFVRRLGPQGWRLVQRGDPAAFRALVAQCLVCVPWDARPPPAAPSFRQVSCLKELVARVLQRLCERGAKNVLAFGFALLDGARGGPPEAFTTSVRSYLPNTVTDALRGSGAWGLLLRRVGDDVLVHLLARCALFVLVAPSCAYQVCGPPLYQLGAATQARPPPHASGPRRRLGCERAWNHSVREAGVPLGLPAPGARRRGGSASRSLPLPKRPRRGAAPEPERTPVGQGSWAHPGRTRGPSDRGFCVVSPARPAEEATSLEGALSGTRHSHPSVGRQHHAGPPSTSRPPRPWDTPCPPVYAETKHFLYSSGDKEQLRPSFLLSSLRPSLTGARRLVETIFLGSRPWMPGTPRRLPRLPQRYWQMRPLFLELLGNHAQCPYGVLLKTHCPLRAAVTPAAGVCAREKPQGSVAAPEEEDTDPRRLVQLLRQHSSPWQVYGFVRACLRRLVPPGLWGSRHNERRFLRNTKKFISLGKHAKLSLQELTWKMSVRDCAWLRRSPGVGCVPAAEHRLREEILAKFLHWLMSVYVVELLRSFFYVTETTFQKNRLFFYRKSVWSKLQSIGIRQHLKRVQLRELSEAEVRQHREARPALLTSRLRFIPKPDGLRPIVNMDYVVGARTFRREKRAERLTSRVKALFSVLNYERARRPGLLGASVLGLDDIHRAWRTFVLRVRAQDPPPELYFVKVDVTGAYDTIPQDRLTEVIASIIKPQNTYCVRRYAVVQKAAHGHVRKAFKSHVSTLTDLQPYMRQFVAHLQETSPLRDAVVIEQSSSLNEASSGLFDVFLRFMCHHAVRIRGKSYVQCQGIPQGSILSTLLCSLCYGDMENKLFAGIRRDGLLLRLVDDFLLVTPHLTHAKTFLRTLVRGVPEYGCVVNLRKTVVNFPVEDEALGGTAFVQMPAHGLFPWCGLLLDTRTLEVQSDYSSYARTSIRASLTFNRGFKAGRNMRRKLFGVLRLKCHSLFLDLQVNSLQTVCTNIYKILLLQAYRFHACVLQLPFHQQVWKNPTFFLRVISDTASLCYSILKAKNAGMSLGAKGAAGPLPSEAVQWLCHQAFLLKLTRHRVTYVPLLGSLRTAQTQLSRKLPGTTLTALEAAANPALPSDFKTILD

For `Cc1cn(C2CC(N=[N+]=[N-])C(COP(=O)(O)OP(=O)(O)OP(=O)(O)O)O2)c(=O)[nH]c1=O` (stereo not drawn) [AZ-TP], the “Slope (line fit of ln(100-%LB) vs # telomere repeats)” value (telomerase [1]; 8μM) was -0.35 and -0.41, the “YIntercept (line fit of ln(100-%LB) vs # telomere repeats)” value (telomerase [1]; 8μM) was 3.32 and 3.48 and the “ln(100-%LB)” value (telomerase [1]; 8μM, telomere repeat 1) was 3.55 and 3.46. The “ln(100-%LB)” value (telomerase [1]; 8μM, telomere repeat 2) was 2.86 and 2.72, the “ln(100-%LB)” value (telomerase [1]; 8μM, telomere repeat 3) was 2.16 and 1.97 and the “ln(100-%LB)” value (telomerase [1]; 8μM, telomere repeat 4) was 1.81 and 1.63. The “ln(100-%LB)” value (telomerase [1]; 8μM, telomere repeat 5) was 1.46 and 1.29, the “ln(100-%LB)” value (telomerase [1]; 8μM, telomere repeat 6) was 1.02 and 0.87 and the “ln(100-%LB)” value (telomerase [1]; 8μM, telomere repeat 7) was 0.66 and 0.48. For the same compound, the “ln(100-%LB)” value (telomerase [1]; 8μM, telomere repeat 8) was 0.32 and 0.21, the “Slope (line fit of ln(100-%LB) vs # telomere repeats)” value (telomerase [1]; 32μM) was -0.51 and -0.43 and the “YIntercept (line fit of ln(100-%LB) vs # telomere repeats)” value (telomerase [1]; 32μM) was 3.76 and 3.36. For the same compound, the “ln(100-%LB)” value (telomerase [1]; 32μM, telomere repeat 1) was 3.48 and 3.40, the “ln(100-%LB)” value (telomerase [1]; 32μM, telomere repeat 2) was 2.72 and 2.60 and the “ln(100-%LB)” value (telomerase [1]; 32μM, telomere repeat 3) was 1.91 and 1.78. For the same compound, the “ln(100-%LB)” value (telomerase [1]; 32μM, telomere repeat 4) was 1.53 and 1.42, the “ln(100-%LB)” value (telomerase [1]; 32μM, telomere repeat 5) was 1.15 and 1.06 and the “ln(100-%LB)” value (telomerase [1]; 32μM, telomere repeat 6) was 0.66. For the same compound, the “ln(100-%LB)” value (telomerase [1]; 32μM, telomere repeat 7) was 0.23 and 0.18, the “Slope (line fit of ln(100-%LB) vs # telomere repeats)” value (telomerase [1]; 500μM) was -1.08 and -0.93 and the “YIntercept (line fit of ln(100-%LB) vs # telomere repeats)” value (telomerase [1]; 500μM) was 4.06 and 3.77. The “ln(100-%LB)” value (telomerase [1]; 500μM, telomere repeat 1) was 3.07 and 3.05, the “ln(100-%LB)” value (telomerase [1]; 500μM, telomere repeat 2) was 1.89 and 1.90 and the “ln(100-%LB)” value (telomerase [1]; 500μM, telomere repeat 3) was 0.66 and 0.65. The “Slope (line fit of ln(100-%LB) vs # telomere repeats)” value (telomerase [1]; 1000μM) was -1.14 and -1.23, the “YIntercept (line fit of ln(100-%LB) vs # telomere repeats)” value (telomerase [1]; 1000μM) was 4.20 and 4.38 and the “ln(100-%LB)” value (telomerase [1]; 1000μM, telomere repeat 1) was 3.08 and 3.19. The “ln(100-%LB)” value (telomerase [1]; 1000μM, telomere repeat 2) was 1.90 and 1.97, the “ln(100-%LB)” value (telomerase [1]; 1000μM, telomere repeat 3) was 0.69 and 0.55 and the “Slope (line fit of ln(100-%LB) vs # telomere repeats)” value (telomerase [1]; 2000μM) was -1.39 and -1.63. For the same compound, the “YIntercept (line fit of ln(100-%LB) vs # telomere repeats)” value (telomerase [1]; 2000μM) was 4.11 and 4.80, the “ln(100-%LB)” value (telomerase [1]; 2000μM, telomere repeat 1) was 2.72 and 3.17 and the “ln(100-%LB)” value (telomerase [1]; 2000μM, telomere repeat 2) was 1.32 and 1.54.

`Cc1cn([C@H]2C[C@H](N=[N+]=[N-])[C@@H](CO)O2)c(=O)[nH]c1=O` [AZT] was tested, and the “% Primer Extension” value (telomerase [2]; Primer 1, 5µM dNTP) was 6.28%, the “% Primer Extension” value (telomerase [2]; Primer 1, 50µM dNTP) was 12.17% and the “% Primer Extension” value (telomerase [2]; Primer 1, 500µM dNTP) was 12.98%. The “% Primer Extension” value (telomerase [2]; Primer 2, 5µM dNTP) was 0%, the “% Primer Extension” value (telomerase [2]; Primer 2, 50µM dNTP) was 0% and the “% Primer Extension” value (telomerase [2]; Primer 2, 500µM dNTP) was 0%. The “% Primer Extension” value (telomerase [2]; Primer 3, 5µM dNTP) was 0%, the “% Primer Extension” value (telomerase [2]; Primer 3, 50µM dNTP) was 3.43% and the “% Primer Extension” value (telomerase [2]; Primer 3, 500µM dNTP) was 4.38%.

For `Nc1ccn([C@H]2C[C@H](O)[C@@H](COP(=O)(O)OP(=O)(O)OP(=O)(O)O)O2)c(=O)n1` [dCTP], the “Percent Primer Extension” value (telomerase [2]; Primer 1 (TTAGGG)3, first template base rA3, Mean of three experiments) was 5.85%, the “Percent Primer Extension” value (telomerase [2]; Primer 1 (TTAGGG)3, first template base rA3, single experiments n1-n3, listed as dC) was 5.75% and 3.98% and 7.81% and the “% Primer Extension” value (telomerase [2]; Primer 1, 5µM dNTP) was 4.15%. The “% Primer Extension” value (telomerase [2]; Primer 1, 50µM dNTP) was 7.81%, the “% Primer Extension” value (telomerase [2]; Primer 1, 500µM dNTP) was 8.06% and the “Percent Primer Extension” value (telomerase [2]; Primer 2 (GGTTAG)3, first template base rC1, Mean of three experiments) was 0.00%. For the same compound, the “Percent Primer Extension” value (telomerase [2]; Primer 2 (GGTTAG)3, first template base rC1, single experiments n1-n3) was 0.00%, the “% Primer Extension” value (telomerase [2]; Primer 2, 5µM dNTP) was 0.00% and the “% Primer Extension” value (telomerase [2]; Primer 2, 50µM dNTP) was 0.00%. For the same compound, the “% Primer Extension” value (telomerase [2]; Primer 2, 500µM dNTP) was 0.00%, the “Percent Primer Extension” value (telomerase [2]; Primer 3 (AGGGTT)3, first template base rU5, Mean of three experiments) was 0.00% and the “Percent Primer Extension” value (telomerase [2]; Primer 3 (AGGGTT)3, first template base rU5, single experiments n1-n3) was 0.00%. The “% Primer Extension” value (telomerase [2]; Primer 3, 5µM dNTP) was 0.00%, the “% Primer Extension” value (telomerase [2]; Primer 3, 50µM dNTP) was 0.00% and the “% Primer Extension” value (telomerase [2]; Primer 3, 500µM dNTP) was 0.00%.
